According to patent EP0677039B1, “CYCLOBUTANE DERIVATIVES AS INHIBITORS OF […] SYNTHETASE AND PROTEIN […]” (Abbott Laboratories, priority 1993, dated 1995):

The molecules below were run on Cholesterol Synthesis (assay: In vivo inhibition of cholesterol synthesis). Settings: Cynomolgus monkeys, 2 males and 2 females per group, 20 mg/kg, po, daily for a total of 5 days; average.
Procedure: Monkeys, Cynomolgus, 2 males and 2 females per group, Controls: 3.7-6.1 Kg body weight, Dosed animals: 4.8-5.6 Kg body weight) were fasted overnight and bled in the morning. Plasma samples were prepared and analyzed for total cholesterol, HDL-cholesterol and triglycerides. […] Dosing was continued daily for a total of 5 days. Prior to the last dose the animals were fasted overnight and bled after dosing but before feeding. Plasma samples (anticoagulated with EDTA) were prepared and analyzed as before. One-sample t-tests were calculated to test for significant change within a group across the experiment.

Row | SMILES | Total plasma cholesterol was lowered
1 | CCCN(Cc1ccc(Oc2ccccc2)cc1)C(=O)[C@H]1[C@@H](C(=O)O)[C@H](C(=O)O)[C@@H]1C(=O)N(CCC)Cc1ccc(Oc2ccccc2)cc1 (racemic) [Example 17, (1α,2β,3β,4α)-1,2-Di[N-propyl-N-(4-phenoxybenzyl)aminocarbonyl]cyclobutane-3,4-dicarboxylic acid] | 15.5%

What follows are molecules tested against T1, Rat liver microsomal squalene synthetase (Rattus norvegicus, UniProt Q02769) (assay: In vitro inhibition of squalene synthetase). Settings: 10 µM test compound; rat liver microsomes, labelled farnesyl pyrophosphate, 10 minutes at 37 °C; compared to controls with no test compound.
T1 construct: Rat liver microsome, the source of enzyme; from tissue; host or cells: rat liver microsomes
T1 sequence (Q02769 1-416): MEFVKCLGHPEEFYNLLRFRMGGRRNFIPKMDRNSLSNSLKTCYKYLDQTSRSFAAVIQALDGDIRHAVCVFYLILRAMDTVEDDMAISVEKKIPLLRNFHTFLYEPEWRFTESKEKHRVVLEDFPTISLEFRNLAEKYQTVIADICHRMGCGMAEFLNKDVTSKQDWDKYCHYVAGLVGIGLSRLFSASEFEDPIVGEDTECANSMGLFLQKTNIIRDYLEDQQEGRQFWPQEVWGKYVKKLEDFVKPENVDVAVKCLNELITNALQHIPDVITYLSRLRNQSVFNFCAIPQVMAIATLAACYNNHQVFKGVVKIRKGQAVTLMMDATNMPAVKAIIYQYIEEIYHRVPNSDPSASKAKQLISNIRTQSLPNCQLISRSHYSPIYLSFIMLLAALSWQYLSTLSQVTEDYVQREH
Format: biochemical
In short: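 Rat liver microsomes converted labelled farnesyl pyrophosphate to squalene under nitrogen. Ethanolic KOH stopped the reaction, and squalene was extracted into hexane and separated on alumina before counting. Percent inhibition was taken at 10 µM (or 1 µM) versus compound-free controls.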

Row | inhibition at 10 µM | SMILES
2 | 80% | CCCN(Cc1ccc(Oc2ccccc2)cc1)C(=O)C1C(CO)C(C(=O)O)C1C(=O)N(CCC)Cc1ccc(Oc2ccccc2)cc1 (stereo not drawn) [Example 70B, (1α,2β,3β,4α)-1,2-Di[N-propyl-N-(4-phenoxybenzyl)aminocarbonyl]-4-hydroxymethyl-cyclobutane-3-carboxylic acid]
3 | 90% | CCCN(Cc1ccc(Oc2ccccc2)cc1)C(=O)[C@H]1[C@@H](C(=O)O)[C@H](C(=O)O)[C@@H]1C(=O)N(Cc1ccccc1)Cc1ccc(Oc2ccccc2)cc1 [Example 63, (1α,2β,3β,4α)-1-[N-Propyl-N-(4-phenoxybenzyl)aminocarbonyl]-2-[N-benzyl-N-(4-phenoxybenzyl)aminocarbonyl]cyclobutane-3,4-dicarboxylic acid]
4 | 92% | CCCN(Cc1ccc(Oc2ccccc2)cc1)C(=O)C1C(C(=O)O)C(C(=O)NCC(=O)O)C1C(=O)N(CCC)Cc1ccc(Oc2ccccc2)cc1 (stereo not drawn) [Example 106, (1α,2β,3β,4α)-1,2-Di[N-propyl-N-(4-phenoxybenzyl)aminocarbonyl]cyclobutane-3-4-dicarboxylic acid mono-Glycine amide]
5 | 63% | O=C(O)[C@H]1[C@H](C(=O)O)[C@H](C(=O)N(CCCCc2ccccc2)Cc2ccc(Oc3ccccc3)cc2)[C@H]1C(=O)N(CCCCc1ccccc1)Cc1ccc(Oc2ccccc2)cc1 [Example 58, (1α,2β,3β,4α)-1,2-Di[N-(4-phenoxybenzyl)-N-(4-phenyl-1-butyl)aminocarbonyl]cyclobutane-3,4-dicarboxylic acid]
6 | 84% | CCCN(Cc1ccc(Cc2ccccc2)cc1)C(=O)[C@H]1[C@@H](C(=O)O)[C@H](C(=O)O)[C@@H]1C(=O)N(CCC)Cc1ccc(Cc2ccccc2)cc1 [Example 25, (1α,2β,3β,4α)-1,2-Di[N-propyl-N-(4-benzylbenzyl)aminocarbonyl]cyclobutane-3,4-dicarboxylic acid]

Same assay, conditions: values marked * in Table 1: 1 µM test compound; rat liver microsomes, labelled farnesyl pyrophosphate, 10 minutes at 37 °C

Row | SMILES | inhibition at 1 µM
7 | CCCN(Cc1ccc(Oc2ccccc2)cc1)C(=O)C1C(C(=O)O)C(C(=O)Nc2nnn[nH]2)C1C(=O)N(CCC)Cc1ccc(Oc2ccccc2)cc1 (stereo not drawn) [Example 92B, (1α,2β,3β,4a)-1,2-Di[N-propyl-N-(4-phenoxybenzyl)aminocarbonyl]cyclobutane-3-[N-(5-tetrazolyl)]carboxamide-4-carboxylic acid] | 80%
8 | CCCN(Cc1ccc(Oc2ccccc2)cc1)C(=O)C1C(C(=O)O)C(c2nn[nH]n2)C1C(=O)N(CCC)Cc1ccc(Oc2ccccc2)cc1 (stereo not drawn) [Example 72C] | 51%

Second part, the molecule after the results:

Row | inhibition at 1 µM | SMILES
9 | 78% | CCCN(Cc1ccc(Oc2ccccc2)cc1)C(=O)C1C(C(=O)O)C(C(=O)NC(CC(=O)O)C(=O)O)C1C(=O)N(CCC)Cc1ccc(Oc2ccccc2)cc1 (stereo not drawn) [Example 109, (1α,2β,3β,4α)-1,2-Di[N-propyl-N-(4-phenoxybenzyl)aminocarbonyl]cyclobutane-3,4-dicarboxylic acid mono-d,l-Aspartic acid amide]
10 | 68% | CCCN(Cc1ccc(Oc2ccccc2)cc1)C(=O)CC1C(CC(=O)N(CCC)Cc2ccc(Oc3ccccc3)cc2)C(C(=O)O)C1C(=O)O (stereo not drawn) [Example 127C, (1α,2β,3β,4α)-1,2-Di-[N-propyl-N-(4-phenoxybenzyl)aminocarbonylmethyl]-cyclobutane-3,4-dicarboxylic acid]
11 | 70% | CCCCC(NC(=O)[C@@H]1[C@@H](C(=O)O)[C@@H](C(=O)N(CCC)Cc2ccc(Oc3ccccc3)cc2)[C@@H]1C(=O)N(CCC)Cc1ccc(Oc2ccccc2)cc1)C(=O)O (single isomer, unassigned) [Example 104A, (1α,2β,3β,4α)-1,2-Di[N-propyl-N-(4-phenoxybenzyl)aminocarbonyl]cyclobutane-3,4-dicarboxylic acid Mono-Norleucine Amide]
12 | 59% | CCCN(Cc1ccc(Oc2ccccc2)cc1)C(=O)C1C(C(=O)O)C(C(=O)N(C)CC(=O)O)C1C(=O)N(CCC)Cc1ccc(Oc2ccccc2)cc1 (stereo not drawn) [Example 108, (1α,2β,3β,4α)-1,2-Di[N-propyl-N-(4-phenoxybenzyl)aminocarbonyl]cyclobutane-3,4-dicarboxylic acid mono-Sarcosine amide]
